Measured values reported in patent publication US5712367A, “Process for the solubilization of peptides and process for peptide synthesis” (Rhone-Poulenc Chimie, priority 1989, dated 1998).

Assays:
Format in all cases: physicochemical
[1] = Partition coefficient of N-tert-butyloxycarbonylpentaglycine esters between CH2Cl2 and H2O
[2] = Solubility of N-tert-butyloxycarbonylpentaglycine esters (CH3)3COCO(NHCH2CO)5OR in anisole, CH2Cl2 and H2O; settings: for Solubility in g/100 cm^3 CH2 Cl2: solvent CH2Cl2; for Solubility in g/100 cm^3 H2 O: solvent H2O; for Solubility in g/100 cm^3 anisole: solvent anisole
[3] = Measurement of the solubilities of the molecules of formula (L)-seryl-A--L in water; settings: measured in the filtrate after grinding in water for 15 minutes
Protocol: Ammonia gas was passed into this solution at room temperature. The ammonium chloride precipitate obtained was rapidly filtered off. […] The product obtained after concentration was immediately ground in water for 15 minutes at room temperature and then filtered off.
The solubility of the product of formula (L)-seryl-A--L was measured in the filtrate.

SMILES	Partition coefficient between CH2 Cl2 and H2 O [1]	Solubility in g/100 cm^3 CH2 Cl2 [2]	Solubility in g/100 cm^3 H2 O [2]	Solubility in g/100 cm^3 anisole [2]	solubility in water at 25° C. [3]
COC(=O)CNC(=O)CNC(=O)CNC(=O)CNC(=O)CNC(=O)OC(C)(C)C [CH3]	0.66	0.33 g/100 cm^3	0.50 g/100 cm^3	insoluble	
N[C@@H](CO)C(=O)OCc1ccccc1 [L-Serine benzyl ester]					> 100 mg/mL
CC(C)(C)OC(=O)NCC(=O)NCC(=O)NCC(=O)NCC(=O)NCC(=O)OCc1ccccc1 [benzyl]	4.1	0.070 g/100 cm^3	0.017 g/100 cm^3	insoluble	

Second part, the compound after the results:

Partition coefficient between CH2 Cl2 and H2 O [1]	Solubility in g/100 cm^3 CH2 Cl2 [2]	Solubility in g/100 cm^3 H2 O [2]	Solubility in g/100 cm^3 anisole [2]	solubility in water at 25° C. [3]	SMILES
> 1,000	> 10 g/100 cm^3	0.0016 g/100 cm^3	5 g/100 cm^3		CC(C)(C)OC(=O)NCC(=O)NCC(=O)NCC(=O)NCC(=O)NCC(=O)OCc1cccc(C(=O)OCc2ccc(-c3ccccc3)cc2)c1 [Example R1]
> 2,000	> 10 g/100 cm^3	0.0008 g/100 cm^3	5 g/100 cm^3		CC(C)(C)OC(=O)NCC(=O)NCC(=O)NCC(=O)NCC(=O)NCC(=O)OCc1cccc(C(=O)OCc2cccc(Oc3ccccc3)c2)c1 [Example R2]
